# Values quoted from earlier work as cited in PMC2909581 (Clinical cancer research : an official journal of the …, 2010).
# System: melanoma
# Details: single agent; cited from earlier work
structure (smiles),measurement,value
"C=CCNC1=C2C[C@@H](C)C[C@H](OC)[C@H](O)[C@@H](C)/C=C(\C)[C@H](OC(N)=O)[C@@H](OC)/C=C\C=C(/C)C(=O)NC(=CC1=O)C2=O [tanespimycin, 17-demethoxy-allylaminogeldanamycin]",response in phase II trial,no objective responses or disease stabilization
